In article PMC4015959, “The Structural and Functional Basis of Catalysis Mediated by NAD(P)H:acceptor Oxidoreductase (FerB) of Paracoccus denitrificans” (PLoS ONE, 2014):
Several values for one entry are separate records, joined by “and”; a condition that tells them apart may be missing. Equal values may be shown once.

Legend:
[1] = target: FerBHis6 wild-type and mutant variants; assay: Steady-state kinetics of NADH oxidation with UQ-0 as acceptor (quinone reductase activity); format: biochemical, Paracoccus denitrificans; conditions: UQ-0 100 µM, pH 7.4, 30 °C
Protocol: (§1) The kinetic parameters ± standard error were determined by fitting the data to the appropriate kinetic equation using nonlinear regression and the program Microcal Origin (version 5.0).

[2] = cited from earlier work
apoFerBHis6 = apoFerBHis6 (Paracoccus denitrificans, UniProt A1B9E3); assay: Fluorescence titration of free flavin by apoenzyme (dissociation constants); format: binding; conditions: for Kd: 25 mM Tris-HCl, pH 7.4, 25 °C, read-out: Kd of apoFerBHis6-flavin complex
Protocol: Dissociation constants of apoenzyme-flavin complexes were determined from fluorescence titration with excitation at 450 nm by adding of constant amount of the wild-type and mutant variants of apoFerBHis6 into 25 mM Tris-HCl buffer (pH 7.4) with 100 nM FMN or riboflavin. Decreasing emission intensities at 519 nm were recorded on Luminescence Spectrotometer LS-50B (Perkin-Elmer). Series of different concentrations of FMN standard was used for setting of a calibration curve on fluorescence intensity. The dissociation constants Kd were calculated according to [22] and converted to the binding Gibbs energy changes ΔGb = -RTln (1/Kd) (where R, gas constant, T, absolute temperature), from which the variation of Gibbs energy due to mutation (ΔΔGb) was computed as the difference in binding energy between mutant and wild-type enzyme (ΔΔGb = ΔGb(mut) - ΔGb(wt)).

[3] = system: Cc1cc2nc3c(=O)[nH]c(=O)nc-3n(C[C@H](O)[C@H](O)[C@H](O)COP(=O)(O)OP(=O)(O)OC[C@H]3O[C@@H](n4cnc5c(N)ncnc54)[C@H](O)[C@@H]3O)c2cc1C; assay: purified protein, by the assay type; format: biochemical, Paracoccus denitrificans; conditions: other: NADH as donor; pH 7.4; 30.0 °C
Protocol: as §1
(§2) Measurements were performed at 30 °C with 61 nM enzyme in 25 mM Tris-HCl buffer (pH 7.4).

[4] = system: Cc1cc2nc3c(=O)[nH]c(=O)nc-3n(C[C@H](O)[C@H](O)[C@H](O)CO)c2cc1C; assay: purified protein, by the assay type; format: biochemical, Paracoccus denitrificans; conditions: other: NADH as donor; pH 7.4; 30.0 °C
Protocol: as §1, §2

[5] = system: Cc1cc2nc3c(=O)[nH]c(=O)nc-3n(C[C@H](O)[C@H](O)[C@H](O)COP(=O)(O)O)c2cc1C; assay: purified protein, by the assay type; format: biochemical, Paracoccus denitrificans; conditions: other: NADH as donor
Protocol: as §1, §2

FerBHis6-R95A = target: T1, FerBHis6-R95A (Paracoccus denitrificans, UniProt A1B9E3, R95A); assay: NADH:flavin oxidoreductase initial-velocity kinetics of R95A mutant; format: biochemical
T1 sequence (A1B9E3 1-182 R95A): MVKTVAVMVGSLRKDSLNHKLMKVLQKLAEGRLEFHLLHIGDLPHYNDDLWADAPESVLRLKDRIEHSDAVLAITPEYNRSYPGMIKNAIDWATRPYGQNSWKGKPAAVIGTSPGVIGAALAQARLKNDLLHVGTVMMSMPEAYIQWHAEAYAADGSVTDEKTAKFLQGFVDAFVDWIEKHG
Protocol: as §1, §2

FerBHis6 = assay: Stopped-flow reduction of enzyme-bound flavin cofactor by NADH; format: biochemical, Paracoccus denitrificans
Protocol: Stopped-flow spectrophotometry was performed on a SFM-3000 (Bio-Logic) stopped-flow system equipped with a 0.8- × 0.8-mm cuvette (FC-08). The temperature was kept constant at 10 °C with a thermostating water bath. Six measurements were averaged for each sample. […] Results from the stopped-flow experiments were analyzed in the Bio-Kine software (BioLogic).

[6] = Standard redox potential by xanthine/xanthine oxidase method of Massey with reference dye; format: physicochemical; conditions: 50 µM free FMN, pH 7.0
[7] = system: EmoB of Mesorhizobium sp. bacterium BNC1; conditions: cited from earlier work
FerB = assay: Activity toward external FMN, wild-type enzyme; format: biochemical, Paracoccus denitrificans
Protocol: as §1

[8] = parameters: method as in PMID 17029888; conditions: aqueous solutions; cited from earlier work
[9] = FMN self-association in aqueous solution by 1H NMR chemical shift (literature); format: physicochemical; conditions: order of magnitude, from association constant of ref 46
B. subtilis YhdA = system: B. subtilis YhdA; parameters: method as in PMID 16752898; conditions: cited from earlier work
WrbA protein of E. coli = system: WrbA protein of E. coli; parameters: method as in PMID 9694845; conditions: cited from earlier work
[10] = target: FerB (ferric reductase B, NAD(P)H:acceptor oxidoreductase) of Paracoccus denitrificans with a C-terminal six-histidine tag (Paracoccus denitrificans) (UniProt P84469); assay: SAXS; 1.25 mg/mL protein, 290.15 K, buffer of the last purification step; dimer to tetramer; volume fractions by OLIGOMER
[11] = target: FerB (ferric reductase B, NAD(P)H:acceptor oxidoreductase) of Paracoccus denitrificans with a C-terminal six-histidine tag (Paracoccus denitrificans) (UniProt P84469); assay: SEC; Superose 12, 0.1 mL of 0.5 mg/mL protein, 25 mM Tris-HCl pH 7.4, 0.5 mL/min, calibrated with marker proteins; holoenzyme
[12] = target: FerB (ferric reductase B, NAD(P)H:acceptor oxidoreductase) of Paracoccus denitrificans with a C-terminal six-histidine tag (Paracoccus denitrificans) (UniProt P84469); assay: SAXS; 5.0 mg/mL protein, 290.15 K, buffer of the last purification step; dimer to tetramer; volume fractions by OLIGOMER
[13] = target: FerB (ferric reductase B, NAD(P)H:acceptor oxidoreductase) of Paracoccus denitrificans with a C-terminal six-histidine tag (Paracoccus denitrificans) (UniProt P84469); assay: SAXS; […] protein, 290.15 K, buffer of the last purification step; dimer to tetramer; volume fractions by OLIGOMER

Compound: [2H]C1C=CN(C2OC(COP(=O)(O)OP(=O)(O)OCC3OC(n4cnc5c(N)ncnc54)C(O)C3O)C(O)C2O)C=C1C(N)=O (centres unmarked) [deuterated NADH]
- kinetic isotope effect for enzyme-catalyzed UQ-0 reduction [1]: about 6

Compound: Nc1ccc2nc3ccc(N)cc3[n+](-c3ccccc3)c2c1.[Cl-] [phenosafranin]
- E° ´ of reference dye [2]: −252 mV

Compound: Cc1cc2nc3c(=O)[nH]c(=O)nc-3n(C[C@H](O)[C@H](O)[C@H](O)CO)c2cc1C [riboflavin]
- Kd (apoFerBHis6): 6.58 µM and 6.6 µM
- increase in Kd relative to FMN (apoFerBHis6; riboflavin vs FMN): 244 fold

Compound: FerBHis6-R95A (Paracoccus denitrificans PD1222; R95A)
- Km [3]: 95 ± 7 µM
- kcat [3]: 38 ± 1 s⁻¹
- Km [4]: 59 ± 12 µM
- kcat [4]: 75 ± 10 s⁻¹
- kcat ([5]; 30 °C, 25 mM Tris-HCl pH 7.4): 50 ± 5 s⁻¹
- Km ([5]; pH 7.4, 30.0 °C): 111 ± 15 µM

Compound: NC(=O)C1=CN([C@@H]2O[C@H](COP(=O)(O)OP(=O)(O)OC[C@H]3O[C@@H](n4cnc5c(N)ncnc54)[C@H](O)[C@@H]3O)[C@@H](O)[C@H]2O)C=CC1 [NADH]
- Michaelis constant for NADH (FerBHis6-R95A; FMN as acceptor, bisubstrate ping-pong fit): 33 ± 7 µM
- NADH concentration giving half maximal effect on kobs (FerBHis6; 30 µM FerBHis6, 1–5000 µM NADH, 10 °C, anaerobic): 6.4 ± 1.0 µM
- pH dependence of kobs (FerBHis6; 5 mM NADH, pH interval 3–9): did not depend on pH
- limit of kobs (apparent electron-transfer rate constant for FerB-NADH complex) (FerBHis6; 10 °C, anaerobic): 147.0 ± 0.4 s⁻¹ and ~140 s⁻¹

Compound: Cc1cc2nc3c(=O)[nH]c(=O)nc-3n(C[C@H](O)[C@H](O)[C@H](O)COP(=O)(O)O)c2cc1C [FMN, flavin mononucleotide]
- Kd (apoFerBHis6): 0.027 ± 0.002 µM
- Gibbs binding energy coming from the phosphate (apoFerBHis6; calculated from Kd values of FMN and riboflavin): -3.25 kcal/mol
- total Gibbs binding energy (apoFerBHis6; calculated from experimental Kd): -10.3 kcal/mol
- E° ´ of free flavin [6]: −212 mV
- kcat of FMN reduction ([7]; calculated from Vmax using subunit mass 21 412 Da): 397 s⁻¹
- Vmax [7]: 1111 µmol/min/mg
- ratio of kcat toward external FMN to kcat toward UQ-0 (FerB): about 0.006
- self-association constant [8]: 20 to 100 M⁻¹
- expected dissociation constant of self-association [9]: ~10 mM
- kcat (catalytic constant) of flavin reduction (FerBHis6-R95A; NADH as donor, 30 °C, 25 mM Tris-HCl pH 7.4): 50 s⁻¹
- ratio of kcat toward external FMN to kcat toward UQ-0 (FerBHis6-R95A; R95A mutation): 0.32
- kcat of FMN reduction (B. subtilis YhdA): 60 to 70 s⁻¹
- E° ´ published value ([2]; free FMN): −207 mV
- Kd (WrbA protein of E. coli): 2 µM
- kinetic solvent isotope effect kobs(H2O)/kobs(D2O) (FerBHis6; 99% deuterium oxide, buffer pH 6.8): 1.9

Compound: O=C1c2ccccc2C(=O)c2cc(S(=O)(=O)O)ccc21 [anthraquinone-2-sulfonate]
- E° ´ of reference dye [2]: −225 mV

Compound: FerB (ferric reductase B, NAD(P)H:acceptor oxidoreductase) of Paracoccus denitrificans with a C-terminal six-histidine tag (from UniProt P84469 1-27) (enzyme)
- partial volume fraction of dimer [10]: 34%
- partial volume fraction of tetramer [10]: 66%
- stoichiometry N [11]: 1.88 subunits
- partial volume fraction of dimer [12]: 9%
- partial volume fraction of tetramer [12]: 91%
- partial volume fraction of dimer [13]: 13%
- partial volume fraction of tetramer [13]: 87%

Compound: [2H][C@@H]1C=CN(C2OC(COP(=O)(O)OP(=O)(O)OCC3OC(n4cnc5c(N)ncnc54)C(O)C3O)C(O)C2O)C=C1C(N)=O (stereo partly drawn) [[4R-^2H]NADH]
- kinetic isotope effect for enzyme-catalyzed UQ-0 reduction [1]: 1.07±0.13

Compound: [2H][C@H]1C=CN(C2OC(COP(=O)(O)OP(=O)(O)OCC3OC(n4cnc5c(N)ncnc54)C(O)C3O)C(O)C2O)C=C1C(N)=O (stereo partly drawn) [[4S-^2H]NADH]
- kinetic isotope effect for enzyme-catalyzed UQ-0 reduction [1]: 5.45±0.21

Compound: COC1=C(OC)C(=O)C(C)=CC1=O [UQ-0, 2,3-dimethoxy-5-methyl-1,4-bezoquinone]
- time to complete oxidation of dithionite pre-reduced flavin cofactor (FerBHis6; 200 µM UQ-0, within stopped-flow dead time, all proteins): ≤ 0.4 ms

Compound: O=C1/C(=C2\Nc3ccc(S(=O)(=O)[O-])cc3C2=O)Nc2ccc(S(=O)(=O)[O-])cc21.[Na+].[Na+] [indigo carmine]
- E° ´ of reference dye [2]: −125 mV
